Experimental data published in patent US20240294478A1, “ANTI-CANCER COMPOUNDS AND METHODS OF USE” (YALE UNIVERSITY, priority 2021, published 2024).

What was measured:
Assay type in all cases: cell-based, human
[1] = system: FANCD2 ubiquitination in LN229 MGMT+/−, MMR+/− cells; experiment: Western blot analysis of FANCD2 ubiquitination
Source text: FIGS. 8A-8K. (FIG. 8A) Change in percent cells with 1 micronuclei from baseline (DMSO control) after treatment as in FIGS. 5A and 5C. Columns, mean; error bars, SD; n>15 technical replicates; **** p<0.0001; ns, not significant. (FIG. 8B) Short-term viability assay curves for KL-50 in PD20 cells, deficient in FANCD2 (FANCD2−/−) or complemented with FANCD2 (+FANCD2). (FIG. 8C) Short-term viability assay curves for KL-50 in PEO4 (BRCA2+) and PEO1 (BRCA2−/−) cells pre-treated with 0.01% DMSO control or 10 μM O^6BG (+O^6BG) for 1 h prior to KL-50 addition. (FIG. 8D) Short-term viability assay curves for KL-50 in DLD1 BRCA2+/− and BRCA2−/−cells pre-treated with 0.01% DMSO control or 10 μM O^6BG (+O^6BG) for 1 h prior to KL-50 addition. For FIGS. 8B-8D, points, mean; error bars, SD; n=3 technical replicates. […] (FIG. 8E) Validation of micronuclei identification using olaparib as positive control. Change in percent cells with 1 micronuclei from baseline (DMSO control) after treatment with olaparib (10 μM) for 48 h in LN229 MGMT+/−, MMR+/−cells. Columns, mean; error bars, SD; n>15 technical replicates; **** p<0.0001. […] The % FANCD2 ubiquitination (% FANCD2 Ub) is quantified as the background-corrected integrated band intensity of the upper band divided by the sum of the background-corrected integrated band intensities of the upper and lower bands. […]

[2] = system: MGMT−/MMR− cells; experiment: IR alkaline comet assay, LN229 MGMT-/MMR-, time course; conditions: time points 2-24 h
Procedure: The IR alkaline comet assay, adapted for ICL detection was performed to determine if ICLs were formed in MGMT-cells treated with KL-50. In this assay, cells were sequentially exposed to genotoxins and ionizing radiation, and then analyzed by single cell alkaline gel electrophoresis. Attenuation of the IR-induced comet tail is indicative of ICL formation.
IR Alkaline Comet Assay. This assay was performed utilizing the CometAssay™ Kit (Trevigen) according to the alkaline assay protocol, with the addition of slide irradiation post-lysis. Cells were trypsinized, washed with 1×PBS, added to melted Comet LMAgarose (Trevigen), and spread on Trevigen CometSlides at a density of 1000 cells per sample in 50 μL. Lysis solution (Trevigen) with 10% DMSO was added overnight at 4° C. Slides were removed from lysis buffer and irradiated to 0 or 10 Gy using an XRAD 320 X-Ray System (Precision X-Ray) at 320 kV, 12.5 mA, and 50.0 cm SSD, with a 2 mm Al filter and 20 cm×20 cm collimator. Slides were then placed in alkaline buffer (200 mM NaOH, 1 mM EDTA) for 45 min, followed by electrophoresis in 850 mL alkaline buffer for 45 min at 4° C. Slides were washed and stained with SYBR gold (Invitrogen) per Trevigen assay protocol. Slides were imaged on a Cytation 3 imaging reader (BioTek), and comets were analyzed using CometScore 2.0 software (TriTek).

[3] = system: MGMT− LN229 cells; experiment: Clonogenic survival assay, LN229 MGMT- cells
Procedure: In vitro clonogenic survival assays (CSAs) were performed using four isogenic LN229 glioblastoma cell lines.
Clonogenic Cell Survival Assay. Cells of each line were pretreated with the test drug in culture for 48-72 hours at the specified dilutions. The cells were then immediately seeded in six-well plates in triplicate at three-fold dilutions, ranging from 9000 to 37 cells per well. Depending on colony size, these plates were kept in the incubator for 10 to 14 days. After incubation, colonies were washed in phosphate-buffered saline (PBS) and stained with crystal violet. Colonies were counted by hand. Counts were normalized to plating efficiency of the corresponding treatment condition.

[4] = system: LN229 MGMT− shMSH6 cells; experiment: Short-term viability assay, LN229 MGMT- shMSH6; conditions: for IC50: Homo sapiens, LN-229, Table III, read-out: IC50 against LN229 cell lines, MGMT− MMR−; for MGMT− RI: Table III
Procedure: The activity of KL-50 in MGMT-LN229 cells engineered to lack expression of other key MMR proteins including MSH6, MLH1, PMS2, and MSH3 was also confirmed. Western blotting was performed in LN229 MGMT+/−cells with stable expression of shRNA targeting MSH6, MLH1, PMS2, or MSH3 to confirm depletion of the shRNA targets. In shMSH6 cells, there was reduced expression of MSH2, and in shMLH1 cells, there was loss of PMS2, due to destabilization in the setting of loss of their heterodimeric partners. GAPDH serves as loading control. […] Short-term viability assay curves for KL-50 in LN229 MGMT+/−, MMR+/shMSH6 cells. […] Short-term viability assay curves for KL-50 in LN229 MGMT+/−, MMR+/shMLH1 cells. […] Short-term viability assay curves for KL-50 in LN229 MGMT+/−, MMR+/shPMS2 cells. […] Short-term viability assay curves for KL-50 in LN229 MGMT+/−, MMR+/shMSH3 cells.
MMR Protein shRNA Knockdown. pGIPZ lentiviral shRNA vectors targeting MSH2, MSH6, MLH1, PMS2, and MSH3 were purchased from Horizon Discovery (Table IV). Lentiviral particles were produced in HEK293T cells via co-transfection with lentiviral shRNA plasmid, pCMV-VSV-G envelope plasmid (Addgene, #8454) and psPAX2 packaging plasmid (Addgene, #12260), using Lipofectamine 3000 Reagent (Invitrogen, L3000001) per manufacturer's protocol. Viral particles were harvested 48 h post-transfection and used to transduce LN229 MGMT+/−cells in the presence of 8 μg/mL polybrene. Selection of pooled cells with lentiviral expression was established with 1 μg/mL puromycin 48 h post-transduction for 3 to 4 days. Single cell cloning was performed by limiting dilution and protein knockdown was confirmed by western blotting.
Short-term Cell Viability Assay. Cells were seeded in 96-well plates at 1000 or 2000 cells/well and allowed to adhere at 23° C. for 60 min and then incubated overnight at 37° C. Cells were treated with indicated concentrations of compounds in triplicate for 4-6 days prior to fixation with 3.7% paraformaldehyde and nuclear staining with 1 μg/mL Hoechst 33342 dye. Cells were imaged on a Cytation 3 imaging reader (BioTek) and quantified using CellProfiler software. For in vitro short-term growth delay experiments, IC50 values were determined from the nonlinear regression equation, [inhibitor] vs normalized response with variable slope.

SMILES | FANCD2 ubiquitination [1] | DNA damage in unirradiated samples [2] | DNA mobility after IR, rate of ICL formation [2] | clonogenic survival, antitumor activity in MGMT− cells ([3]; independent of MMR status) | IC50 [4] | MGMT− RI [4] | clonogenic survival, activity in MGMT−, MMR+ cells [3] | clonogenic survival, activity in MMR− cells ([3]; isogenic cells lacking MMR)
NC(=O)c1ncn2c(=O)n(CCF)nnc12 [KL-50] | observed specifically in MGMT-cells | maximal damage at 2 h | time-dependent decrease in DNA mobility | robust antitumor activity | 6.6 ± 0.4 µM | 0.5 | – | –
Cn1nnc2c(C(N)=O)ncn2c1=O [TMZ, 4-methyl-5-oxo-2,3,4,6,8-pentazabicyclo[4.3.0]nona-2,7,9-triene-9-carboxamide, reference compound] | only in MGMT−/MMR+cells | maximal damage at 2 h | did not induce a statistically significant decrease in DNA migration within 24 h | – | 950 ± 68 µM | 186 | robust tumor cell killing | abolished
